Experimental data taken from article PMC7196807 (Proceedings of the National Academy of Sciences of the …, 2020).

Target: hIP6K1 (IP6K1) (Homo sapiens, UniProt Q92551)
Assay: kinase product identified by Dipp1 cocrystal structure
Format: biochemical
Conditions: kinase site

Sequence of hIP6K1 (IP6K1) (Q92551 whole entry): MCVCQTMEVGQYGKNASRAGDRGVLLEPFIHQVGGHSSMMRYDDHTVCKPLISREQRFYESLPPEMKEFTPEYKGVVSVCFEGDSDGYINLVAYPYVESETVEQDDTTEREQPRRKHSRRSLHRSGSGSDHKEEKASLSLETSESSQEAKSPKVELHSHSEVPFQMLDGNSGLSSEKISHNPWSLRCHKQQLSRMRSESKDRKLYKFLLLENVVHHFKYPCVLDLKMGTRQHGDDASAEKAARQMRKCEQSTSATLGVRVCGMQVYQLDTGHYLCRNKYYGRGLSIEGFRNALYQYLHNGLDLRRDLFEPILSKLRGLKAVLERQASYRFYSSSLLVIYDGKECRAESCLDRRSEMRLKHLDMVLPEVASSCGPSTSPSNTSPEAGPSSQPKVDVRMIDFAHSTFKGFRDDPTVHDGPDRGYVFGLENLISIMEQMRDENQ

Question: With O=P(O)(O)O[C@H]1[C@@H](OP(=O)(O)O)[C@H](OP(=O)(O)O)[C@@H](OP(=O)(O)OP(=O)(O)O)[C@H](OP(=O)(O)O)[C@H]1OP(=O)(O)O [5-IP7] as the compound, how does the “kinase product identified by Dipp1 cocrystal structure” value read?
Answer: Its value is “IP6K1 IP7 product/DIPP complex confirms the stereomer as unambiguously 5-IP7”.
